Assays:
EGFR = target: T1, EGFR (Homo sapiens, UniProt P00533); assay: Biochemical EGFR Assay; parameters: concentration or dose not given beside the values
T1 construct: endogenous in cells; host or cells: A431 cells (lysate, captured with SUMO1 anti-EGFR antibody)
Method: This assay measures the in vitro kinase activity of EGFR using ELISA.
1. Corning 96-well Elisa plates (Corning Catalog No. 25805-96).
2. SUMO1 monoclonal anti-EGFR antibody (Biochemistry Lab, SUGEN, Inc.).
3. PBS (Dulbecco's Phosphate-Buffered Saline, Gibco Catalog No. 450-1300EB).
6. A431 cell lysate (Screening Lab, SUGEN, Inc.)
9. Adenosine-5′-triphosphate (ATP, from Equine muscle, Sigma Cat. No. A-5394).
Prepare a 1.0 mM solution in dH2O. This reagent should be made up immediately prior to use and kept on ice.
Prepare a 1.0 M stock solution in dH2O.
11. ATP/MnCl2 phosphorylation mix
This reagent should be prepared immediately before use and kept on ice
12. NUNC 96-well V bottom polypropylene plates (Applied Scientific Cat. No. AS-72092).
13. Ethylenediaminetetraacetic acid (EDTA)
Prepare 200 mM working solution in dH2O. Adjust to pH 8.0 with 10 N NaOH.
14. Rabbit polyclonal anti-phosphotyrosine serum (Biochemistry Lab, SUGEN, Inc.)
15. Goat anti-rabbit IgG peroxidase conjugate (Biosource Cat. No. ALI0404)
16. ABTS (2,2′-azino-bis(3-ethylbenzthiazoline-6-sulfonic acid), Sigma Cat. No. A-1888).
Mix first two ingredients in about 900 ml dH2O, adjust pH to 4.0 with phosphoric acid. Add ABTS, cover, let sit about 0.5 hr., filter. The solution should be kept in the dark at 4° C. until ready to use.
17. Hydrogen peroxide 30% solution (Fisher Cat. No. H325)
Mix 15 ml ABTS solution and 2.0 μl H2O2. Prepare 5 minutes before use.
1. Coat Corning 96 well ELISA plates with 0.5 μg SUMO1 in 100 μl PBS per well, store overnight at 4° C.
2. Remove unbound SUMO1 from wells by inverting plate to remove liquid. Wash 1× with dH2O. Pat the plate on a paper towel to remove excess liquid.
3. Add 150 μl of Blocking Buffer to each well. Incubate for 30 min. at room temperature with shaking.
4. Wash plate 3× with deionized water, then once with TBST. Pat plate on a paper towel to remove excess liquid and bubbles.
5. Dilute lysate in PBS (7 μg lysate/100 μl PBS)
6. Add 100 μl of diluted lysate to each well. Shake at room temperature for 60 min.
7. Wash plates as described in 4, above.
8. Add 120 μl TBS to ELISA plate containing captured EGFR.
9. Dilute test compound 1:10 in TBS in 96-well polypropylene plates (ie. 10 μl compound+90 μl TBS).
10. Add 13.5 μl diluted test compound to ELISA plate.
11. Incubate for 30 minutes while shaking at room temperature.
13. After 5 minutes, stop reaction by adding 16.5 μl of 200 mM EDTA (pH 8.0) to each well, shaking continuously. After the EDTA has been added, shake for 1 min.
14. Wash 4× with deionized water, twice with TBST.
15. Add 100 μl anti-phosphotyrosine (1:3000 dilution in TBST) per well. Incubate 30-45 min. at room temperature, with shaking.
16. Wash as described in 4, above.
17. Add 100 μl Biosource Goat anti-rabbit IgG peroxidase conjugate (1:2000 dilution in TBST) to each well. Incubate 30 min. at room temperature, with shaking.
18. Wash as described in 4, above.
19. Add 100 μl of ABTS/H2O2 solution to each well.
20. Incubate 5 to 10 minutes with shaking. Remove any bubbles.
21. If necessary stop reaction with the addition of 100 μl 0.2 M HCl per well.
22. Read assay on Dynatech MR7000 ELISA reader. Test Filter: 410 nM Reference Filter: 630 nM

PDGF-R = PDGF-R Assay (cellular ELISA, U1242 cells); assay type: cell-based; parameters: concentration or dose not given beside the values
Procedure, shortened: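 Cellular ELISA for receptor autophosphorylation: after 2 hr test-compound treatment of serum-free U1242 cells at 37°C, ligand is added for 5–10 min, cells are lysed (HNTG) and receptor captured by specific antibody. Anti-phosphotyrosine plus secondary antibody with ABTS colour read at 410/630 nm, compared with compound-free control cells.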

T1 sequence (P00533 25-1210): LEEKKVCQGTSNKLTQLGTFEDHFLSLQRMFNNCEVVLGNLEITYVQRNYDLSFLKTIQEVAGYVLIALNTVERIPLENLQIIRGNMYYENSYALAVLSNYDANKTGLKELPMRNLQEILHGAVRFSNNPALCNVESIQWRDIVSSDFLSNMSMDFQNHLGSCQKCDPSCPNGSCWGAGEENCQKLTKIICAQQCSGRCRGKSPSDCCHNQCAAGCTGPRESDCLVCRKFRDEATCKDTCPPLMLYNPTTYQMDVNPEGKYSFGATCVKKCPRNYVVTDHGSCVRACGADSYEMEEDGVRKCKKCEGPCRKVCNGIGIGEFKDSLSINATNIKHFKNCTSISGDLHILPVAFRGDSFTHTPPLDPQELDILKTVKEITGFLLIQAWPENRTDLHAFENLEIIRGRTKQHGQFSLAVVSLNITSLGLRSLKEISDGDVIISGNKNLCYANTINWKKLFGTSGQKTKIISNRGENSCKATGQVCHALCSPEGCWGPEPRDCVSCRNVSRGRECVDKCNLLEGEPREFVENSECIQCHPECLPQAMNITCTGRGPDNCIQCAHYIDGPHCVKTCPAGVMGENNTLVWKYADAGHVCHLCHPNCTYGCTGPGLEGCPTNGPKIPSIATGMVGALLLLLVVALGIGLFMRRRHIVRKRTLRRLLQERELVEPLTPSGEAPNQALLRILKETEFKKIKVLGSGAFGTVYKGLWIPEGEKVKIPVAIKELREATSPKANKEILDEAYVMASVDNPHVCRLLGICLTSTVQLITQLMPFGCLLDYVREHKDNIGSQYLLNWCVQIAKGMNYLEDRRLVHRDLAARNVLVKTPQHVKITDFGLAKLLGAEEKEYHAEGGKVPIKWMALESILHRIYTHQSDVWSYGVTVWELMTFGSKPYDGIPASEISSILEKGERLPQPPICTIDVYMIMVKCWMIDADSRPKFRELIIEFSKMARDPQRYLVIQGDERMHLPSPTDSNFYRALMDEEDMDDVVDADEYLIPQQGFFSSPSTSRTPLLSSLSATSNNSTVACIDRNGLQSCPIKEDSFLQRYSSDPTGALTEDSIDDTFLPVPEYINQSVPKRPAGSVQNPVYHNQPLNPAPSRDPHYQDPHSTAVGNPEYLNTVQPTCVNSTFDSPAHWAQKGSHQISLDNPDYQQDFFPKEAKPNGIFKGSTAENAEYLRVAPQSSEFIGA

Compound	Biochem EGFR % Inhibition (P.167) (EGFR) [%]	PDGF Kinase % Inhibition (P.119) (PDGF-R) [%]
CCOC(=O)c1c(C)[nH]c(C=C2C(=O)Nc3c(Br)cc(Br)c(C)c32)c1C [10718/H02]	−22.5	
COc1cc(Br)c(O)c(C=C2C(=O)Nc3c(Br)cc(Br)c(C)c32)c1 [10718/H03]	33.2	
Cc1c(Br)cc(Br)c2c1C(=Cc1ccc3ccccc3c1O)C(=O)N2 [10718/H04]	13.7	
CCOC(=O)CCc1c(C(=O)OCC)[nH]c(C=C2C(=O)Nc3c(Br)cc(Br)c(C)c32)c1CC(=O)OCC [10718/H05]	0.2	
CCOC(=O)c1cc(C=C2C(=O)Nc3c(Br)cc(Br)c(C)c32)oc1C [10718/H06]	−5.1	
COC(=O)c1[nH]c(C)c(C=C2C(=O)Nc3c(Br)cc(Br)c(C)c32)c1C(=O)OC [10718/H07]	−12.0	
Cc1c(Br)cc(Br)c2c1C(=Cc1ccc(Cl)c([N+](=O)[O-])c1)C(=O)N2 [10718/H08]	−2.5	
CCOc1cccc(C=C2C(=O)Nc3c(Br)cc(Br)cc32)c1O [10734/A02]	0.0	−3.8
O=C1Nc2c(Br)cc(Br)cc2C1=Cc1cc(Cl)cc(Cl)c1O [10734/A03]	18.5	22.3
O=C1Nc2c(Br)cc(Br)cc2C1=Cc1cc(Cl)ccc1O [10734/A04]	11.4	11.7
CCN(CC)c1ccc(C=C2C(=O)Nc3c(Br)cc(Br)cc32)c(O)c1 [10734/A05]	22.6	2.9
O=C1Nc2c(Br)cc(Br)cc2C1=Cc1ccc([N+](=O)[O-])cc1 [10734/A06]	−6.4	−9.9
O=C1Nc2c(Br)cc(Br)cc2C1=Cc1cc(Br)cc(Br)c1O [10734/A07]	15.2	21.9
O=C1Nc2c(Br)cc(Br)cc2C1=Cc1cccc(F)c1O [10734/A08]	6.8	9.1
O=C1Nc2c(Br)cc(Br)cc2C1=Cc1ccc(O)c(Br)c1 [10734/A09]	27.3	−9.5
CC(C)(C)c1ccc(C=C2C(=O)Nc3c(Br)cc(Br)cc32)cc1 [10734/A10]	27.8	26.3
O=C1Nc2c(Br)cc(Br)cc2C1=Cc1ccc(Br)s1 [10734/A11]	12.5	5.5
CCOc1cccc(C=C2C(=O)Nc3ccc(I)cc32)c1O [10734/B02]	−8.9	−2.9
O=C1Nc2ccc(I)cc2C1=Cc1cc(Cl)cc(Cl)c1O [10734/B03]	45.1	13.0
O=C1Nc2ccc(I)cc2C1=Cc1cc(Cl)ccc1O [10734/B04]	38.7	14.4

Compound	Biochem EGFR % Inhibition (P.167) (EGFR) [%]	PDGF Kinase % Inhibition (P.119) (PDGF-R) [%]
CCN(CC)c1ccc(C=C2C(=O)Nc3ccc(I)cc32)c(O)c1 [10734/B05]	17.8	56.3
O=C1Nc2ccc(I)cc2C1=Cc1ccc([N+](=O)[O-])cc1 [10734/B06]	54.0	0.2
O=C1Nc2ccc(I)cc2C1=Cc1cc(Br)cc(Br)c1O [10734/B07]	65.5	18.8
O=C1Nc2ccc(I)cc2C1=Cc1cccc(F)c1O [10734/B08]	19.3	−2.4
O=C1Nc2ccc(I)cc2C1=Cc1ccc(O)c(Br)c1 [10734/B09]	34.9	12.6
CC(C)(C)c1ccc(C=C2C(=O)Nc3ccc(I)cc32)cc1 [10734/B10]	60.7	7.7
O=C1Nc2ccc(I)cc2C1=Cc1ccc(Br)s1 [10734/B11]	50.9	−5.5
CCOc1cccc(C=C2C(=O)Nc3ccc(Br)c(C)c32)c1O [10734/C02]	−6.7	36.0
Cc1c(Br)ccc2c1C(=Cc1cc(Cl)cc(Cl)c1O)C(=O)N2 [10734/C03]	48.6	24.5
Cc1c(Br)ccc2c1C(=Cc1cc(Cl)ccc1O)C(=O)N2 [10734/C04]	38.1	24.5
CCN(CC)c1ccc(C=C2C(=O)Nc3ccc(Br)c(C)c32)c(O)c1 [10734/C05]	9.3	3.8
Cc1c(Br)ccc2c1C(=Cc1ccc([N+](=O)[O-])cc1)C(=O)N2 [10734/C06]	18.4	−0.2
Cc1c(Br)ccc2c1C(=Cc1cc(Br)cc(Br)c1O)C(=O)N2 [10734/C07]	41.0	32.0
Cc1c(Br)ccc2c1C(=Cc1cccc(F)c1O)C(=O)N2 [10734/C08]	35.1	5.5
Cc1c(Br)ccc2c1C(=Cc1ccc(O)c(Br)c1)C(=O)N2 [10734/C09]	36.2	11.3
Cc1c(Br)ccc2c1C(=Cc1ccc(C(C)(C)C)cc1)C(=O)N2 [10734/C10]	24.4	17.4
Cc1c(Br)ccc2c1C(=Cc1ccc(Br)s1)C(=O)N2 [10734/C11]	18.0	9.1
CCOc1cccc(C=C2C(=O)Nc3ccc(S(=O)(=O)NC)cc32)c1O [10734/D02]	5.2	6.4
CNS(=O)(=O)c1ccc2c(c1)C(=Cc1cc(Cl)cc(Cl)c1O)C(=O)N2 [10734/D03]	19.6	24.1
CNS(=O)(=O)c1ccc2c(c1)C(=Cc1cc(Cl)ccc1O)C(=O)N2 [10734/D04]	−10.7	13.5

Source: patent US20020026053A1, “Novel 3-(substituted) -2- indolinones compounds and use thereof as inhibitors of protein kinase activity” (priority 1997, published 2002)
